Experiment [1] deals with T1, chimera RXFP1-2 (extracellular domain of RXFP1, transmembrane domain of RXFP2) (Homo sapiens, UniProt Q8WXD0).
T1 construct: other: RXFP1-2 chimera; Emax; normalized to 2 μM forskolin cAMP response as 100% activity; fused on or other part: FLAG tag; The RXFP1 extracellular domain is the N-terminal part of the chimera and the RXFP2 transmembrane domain is the C-terminal part; Q9HBX9 (Relaxin receptor 1)
The experiment is described as follows: HTRF cAMP assay in HEK293T cells transiently transfected with chimera RXFP1-2. The format is cell-based. Particulars: RXFP1-2 chimera. An excerpt:
(§1) To further investigate the involvement of the RXFP2 extracellular and transmembrane domains in agonist activation of the receptor, two complementary chimeras were created using the RXFP1 receptor, which is not activated by the agonists of formula (I), to transiently transfect HEK293T cells and measured changes in cAMP induction using the HTRF assay.
(§2) Chimeric receptors were generated by IN-FUSION™ (Takara Bio USA, Inc., San Jose, CA) mutagenesis using full-length human RXFP1 and RXFP2 receptor constructs. Polymerase chain reaction (PCR) was performed using PfuTurbo high-fidelity DNA polymerase (Agilent Technologies, Santa Clara, CA) and overlapping primers with at least 15 bp sequence homology within the fusion site. PCR products were digested with Dpnl restricton enzyme at 37° C. overnight, run on a 0.8% agarose gel and purified using the GENEJET™ Gel extraction kit (Thermo Scientific, Waltham, MA). The purified DNA fragments were then ligated into the BamHI and XhoI pre-digested pcDNA3.1™/Zeo(+) AmpR mammalian expression vector using the In-Fusion HD enzyme premix (Clontech, Mountain View, CA) at 50° C. for 15 minutes, and the resulting product was used to transform Stellar competent cells (Takara Bio USA, Inc., San Jose, CA). The clones were fully sequenced to confirm the correct fusion of both receptor fragments. Chimera RXFP2-1 contained the extracellular domain of RXFP2 and the transmembrane domain of RXFP1. Accordingly, chimera RXFP1-2 contained the extracellular domain of RXFP1 and the transmembrane domain of RXFP2.
(§3) HEK293T cells were seeded in 6-well flat-bottom clear plates at 0.5 million cells/well in 2 mL/well of growth medium (DMEM, 10% FBS, 1× Pen/Strep) and allowed to attach overnight at 37° C. and 5% CO2. The next morning, cells were transfected with 2 μg of plasmid (chimeric receptors, WT RXFP2, or WT RXFP1) and 6 μl of Lipofectamine2000 (Invitrogen, Waltham, MA) in a total volume of 200 μl/well OPTI-MEM™ I (Thermo Fisher, Waltham, MA) reduced serum medium and allowed to incubate an additional 24 hours. The next day, transfected cells were seeded in 96-well flat-bottom opaque plates at 30,000 cells/well in 60 μL/well of serum-free DMEM medium and allowed to attach overnight at 37° C. at 5% CO2. The next morning, cells were treated with 1 μL/well of compound (25 μM-0.25 nM), 2 μM forskolin, or DMSO vehicle. Cells were also treated with 4 μL of positive control INSL3 (100-0.01 nM), Relaxin2 (100-10 nM), or vehicle (serum-free DMEM+IBMX). Plates were incubated for 1 hour at 37° C. and 5% CO2, after which kit cAMP-d2 and anti-cAMP antibody were added as previously described. Cells were incubated for 1 hour at room temperature, and then the signal was read on a CLARIOstar plate reader (BMG Labtech, Germany).
(In general: In TR-FRET formats the signal depends on donor and acceptor labels being close together.)

The subject of experiment [2] is chimera RXFP1-2 (extracellular domain of RXFP1, transmembrane domain of RXFP2). Described as above. The format is cell-based, human.
Description: as §1, §2, §3

Experiment [3] deals with T2, RXFP2 (Homo sapiens, UniProt Q8WXD0).
T2 construct: expressed in transfected cells
Put plainly: HTRF cAMP assay in HEK-RXFP2 cells with INSL3 B dimer antagonist co-treatment. The format is cell-based. Particulars: antagonist 10 μM-[…], IBMX 200 μM. On the procedure:
Previous publications have characterized the INSL3/RXFP2 binding model, showing that the B-chain of INSL3 binds with high affinity to the extracellular leucine-rich repeat (LRR) domain of RXFP2. To determine if the RXFP2 agonists interact with the receptor in a similar manner, an INSL3 antagonist (INSL3 B dimer) was used to co-treat HEK-RXFP2 cells with RXFP2 agonists or INSL3 and measure induction of cAMP using the HTRF assay. […] The HTRF cAMP assay was carried out in the presence of 200 μM IBMX to amplify the cAMP signal. For this assay, cells were seeded in 96-well flat-bottom opaque plates at 7,500 cells/well in 60 μL/well of serum-free DMEM medium and allowed to attach overnight at 37° C. and 5% CO2. The next morning, cells were treated with 2 μL of INSL3 B dimer antagonist (10 μM-0.21 nM) and 2 μL of 30 nM INSL3 or 4 μL of vehicle (serum-free DMEM+IBMX). Cells were also treated with 1 μL/well of 0.28 μM compound, 2 μM forskolin, or DMSO vehicle. Cells were incubated for 1 hour at 37° C., 5% CO2, after which kit cAMP-d2 and anti-cAMP antibody were added as previously described. Plates were incubated for 1 hour at room temperature, and then the signal was read on a CLARIOstar plate reader (BMG Labtech, Germany).

One compound from patent publication US20250134907A1, “FUSED DIAZEPINES AS AGONISTS OF THE INSULIN-LIKE 3 (INSL3) PEPTIDE RECEPTOR RXFP2 AND METHODS OF USE THEREOF” (The United States of America,as represented by the …, priority 2022, published 2025) can be followed below.

T1 sequence (Q8WXD0 417-754 limits assumed, change not shown): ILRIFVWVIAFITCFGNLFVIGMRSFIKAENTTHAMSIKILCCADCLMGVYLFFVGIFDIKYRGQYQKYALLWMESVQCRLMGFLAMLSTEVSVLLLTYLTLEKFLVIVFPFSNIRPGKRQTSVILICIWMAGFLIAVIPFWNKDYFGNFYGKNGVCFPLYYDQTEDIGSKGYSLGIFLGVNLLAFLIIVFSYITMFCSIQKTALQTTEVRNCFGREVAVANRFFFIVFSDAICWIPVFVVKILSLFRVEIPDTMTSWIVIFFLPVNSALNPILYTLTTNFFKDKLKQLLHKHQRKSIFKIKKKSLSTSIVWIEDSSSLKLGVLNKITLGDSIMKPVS
T2 sequence (Q8WXD0 whole entry): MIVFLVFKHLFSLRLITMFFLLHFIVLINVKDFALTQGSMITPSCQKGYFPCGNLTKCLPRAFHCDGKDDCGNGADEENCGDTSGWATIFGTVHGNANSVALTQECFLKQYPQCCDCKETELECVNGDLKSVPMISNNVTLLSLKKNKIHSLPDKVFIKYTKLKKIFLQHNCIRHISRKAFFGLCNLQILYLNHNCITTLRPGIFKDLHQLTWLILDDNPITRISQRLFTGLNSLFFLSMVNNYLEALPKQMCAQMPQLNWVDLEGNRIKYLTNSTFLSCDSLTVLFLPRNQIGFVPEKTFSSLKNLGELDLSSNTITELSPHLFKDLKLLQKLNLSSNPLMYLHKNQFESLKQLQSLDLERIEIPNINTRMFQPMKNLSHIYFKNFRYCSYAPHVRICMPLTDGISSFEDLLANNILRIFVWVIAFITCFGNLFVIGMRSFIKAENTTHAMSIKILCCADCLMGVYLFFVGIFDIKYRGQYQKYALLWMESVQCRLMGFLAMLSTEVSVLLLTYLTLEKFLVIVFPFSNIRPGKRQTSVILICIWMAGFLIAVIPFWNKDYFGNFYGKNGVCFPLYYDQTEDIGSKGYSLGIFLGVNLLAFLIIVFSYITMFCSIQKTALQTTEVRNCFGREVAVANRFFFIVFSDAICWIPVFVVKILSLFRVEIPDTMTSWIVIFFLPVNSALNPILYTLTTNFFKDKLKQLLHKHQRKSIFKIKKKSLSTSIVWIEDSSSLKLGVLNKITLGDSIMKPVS

Compound `O=C1Nc2ccc(-c3cc(C(F)(F)F)cc(C(F)(F)F)c3)cc2C(=O)N2CCN(C(=O)COc3ccc(OC(F)(F)F)cc3I)C[C@@H]12` [Example 187, (S)-8-(3,5-bis(trifluoromethyl)phenyl)-2-(2-(2-iodo-4-(trifluoromethoxy)phenoxy)acetyl)-1,3,4,12a-tetrahydrobenzo[e]pyrazino[1,2-a][1,4]diazepine-6,12 (2H, 11H)-dione] returned an Emax in experiment [1] (HEK-293T, normalized to 2 μM forskolin cAMP response as 100% activity) of 96.47 ± 0.43%. The 50% effective concentration (EC50) in experiment [1] (read-out: EC50 (μM or nM)) came to 0.016 ± 0.002 µM. Further, the “cAMP response of chimera RXFP1-2” value in experiment [2] is listed as “levels comparable to WT RXFP2”. Further, the “effect of INSL3 B dimer antagonist on cAMP response induced by the compound” value in experiment [3] is on record as “no effect”.

In general, Emax refers to the greatest response seen or fitted, relative to the assay's reference. As a reminder, the EC50 is the concentration giving half of the maximal effect.
